What was measured:
RS4;11 xenografts = details: single dose of 100 mg/kg; cited from earlier work
Mcl-1 = Mcl-1 (Homo sapiens (Human), UniProt Q07820); details: cited from earlier work
RS4;11 cells = details: cited from earlier work
CLL [1] = details: Human Phase I and II; cited from earlier work
CLL [2] = details: average; read-out: average EC50, apoptosis in CLL; cited from earlier work
H146 = assay: In vitro anti-proliferation assay (ATPlite) in BCL-XL-dependent small cell lung cancer cell line H146; type: cell-based; details: Homo sapiens, NCI-H146; about 72 hours, 5% FBS
Method: Cell antiproliferation is assayed by PerkinElmer ATPlite™ Luminescence Assay System. Briefly, the various test cancer cell lines are plated at a density of about 1×10^4 cells per well in Costar 96-well plates, and are incubated with different concentrations of compounds for about 72 hours in medium supplemented with 5% FBS. One lyophilized substrate solution vial is then reconstituted by adding 5 mL of substrate buffer solution, and is agitated gently until the solution is homogeneous. About 50 μL of mammalian cell lysis solution is added to 100 μL of cell suspension per well of a microplate, and the plate is shaken for about five minutes in an orbital shaker at ˜700 rpm. This procedure is used to lyse the cells and to stabilize the ATP. Next, 50 μL substrate solution is added to the wells and microplate is shaken for five minutes in an orbital shaker at ˜700 rpm. Finally, the luminescence is measured by a PerkinElmer TopCount® Microplate Scintillation Counter. Such assays, carried out with a range of doses of test compounds, allow the determination of the cellular anti-antiproliferative IC50 of the compounds of the present invention.

Chain of Mcl-1 (Q07820 whole entry): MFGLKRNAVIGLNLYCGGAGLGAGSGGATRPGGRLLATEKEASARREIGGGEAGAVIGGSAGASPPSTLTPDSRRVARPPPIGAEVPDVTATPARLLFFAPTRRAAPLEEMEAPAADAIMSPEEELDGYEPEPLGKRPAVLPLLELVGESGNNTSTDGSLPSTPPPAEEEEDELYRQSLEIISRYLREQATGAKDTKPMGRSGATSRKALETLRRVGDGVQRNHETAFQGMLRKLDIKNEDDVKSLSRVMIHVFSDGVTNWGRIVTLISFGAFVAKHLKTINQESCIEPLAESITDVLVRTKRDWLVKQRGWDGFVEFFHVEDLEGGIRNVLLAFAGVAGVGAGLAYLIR

Compound: CC1(C)CCC(CN2CCN(c3ccc(C(=O)NS(=O)(=O)c4ccc(NCC5CCOCC5)c([N+](=O)[O-])c4)c(Oc4cnc5[nH]ccc5c4)c3)CC2)=C(c2ccc(Cl)cc2)C1 [ABT-199]
- maximal tumor growth inhibition (RS4;11 xenografts): 95%
- tumor growth delay (RS4;11 xenografts): 152%
- activity to Mcl-1 (Mcl-1): no activity
- EC50 (RS4;11 cells): 8 nM
- clinical efficacy for CLL (CLL [1]): highly efficacious
- clinical toxicity (CLL [1]): lethal tumour lysis syndrome
- EC50 (CLL [2]): 3 nM
- IC50 (H146): > 2000 nM

From patent US10377755B2, “BCL-2 inhibitors” (Newave Pharmaceutical Inc., priority 2016, dated 2019)
